The supplement of paper PMC10307832

Key:
Assay in all cases: relative viability (nuclei count vs DMSO), 5 days (fraction); higher = more cells survive
Tosedostat + Trametinib = compound: CC(C)C[C@@H](C(=O)N[C@H](C(=O)OC1CCCC1)c1ccccc1)[C@H](O)C(=O)NO [Tosedostat] + CC(=O)Nc1cccc(-n2c(=O)n(C3CC3)c(=O)c3c(Nc4ccc(I)cc4F)n(C)c(=O)c(C)c32)c1 [Trametinib] (partner 0.02 µM)
Outline: (§1)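 One day after seeding in 1536-well plates, lung cancer cell lines were dosed by pin tool. Dosing was either single-drug or a fixed anchor-drug dose plus five library-drug doses (not always all listed) in √10 steps. After 5 days, nuclei were stained in one fix-and-stain step and counted on 4× images, and relative viability is the nuclei count of treated wells over that of vehicle wells, given as the median of duplicate plates.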

[1] = compound: CC1=NN=C(O1)C2=NN=C(C=C2)N3CCC(CC3)OC4=C(C=CC(=C4)F)Cl
Outline: (§2)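 Five library-drug doses, separated by factors of √10, were pinned into 1536-well plates holding lung cancer cell lines after an overnight stay at 37 °C. Cells were fixed, permeabilised and Hoechst-stained in one step after 5 days without medium change, then imaged at 4×. Viability compares treated-well with vehicle-well nuclei, counted in MetaXpress, as a median across plates. Passing plates had control CV below 25% and at least one doubling.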

Tosedostat = compound: CC(C)C[C@@H](C(=O)N[C@H](C(=O)OC1CCCC1)c1ccccc1)[C@H](O)C(=O)NO [Tosedostat]
Outline: as §2

[2] = compound: CC1=NN=C(O1)C2=NN=C(C=C2)N3CCC(CC3)OC4=C(C=CC(=C4)F)Cl + CC1(C)CCC(c2ccc(Cl)cc2)=C(CN2CCN(c3ccc(C(=O)NS(=O)(=O)c4ccc(N[C@H](CCN5CCOCC5)CSc5ccccc5)c(S(=O)(=O)C(F)(F)F)c4)cc3)CC2)C1 [Navitoclax] (partner 0.5 µM)
Outline: as §1

| Cell Line | relative viability (Tosedostat + Trametinib; first compound 0.02 µM) | relative viability (Tosedostat + Trametinib; first compound 0.06325 µM) | relative viability (Tosedostat + Trametinib; first compound 0.2 µM) | relative viability (Tosedostat + Trametinib; first compound 0.6325 µM) | relative viability (Tosedostat + Trametinib; first compound 2 µM) | relative viability ([1]; 0.253 µM) | relative viability ([1]; 0.8 µM) | relative viability ([1]; 2.53 µM) | relative viability ([1]; 8 µM) | relative viability (Tosedostat; 0.02 µM) | relative viability (Tosedostat; 0.06325 µM) | relative viability (Tosedostat; 0.2 µM) | relative viability (Tosedostat; 0.6325 µM) | relative viability (Tosedostat; 2 µM) | relative viability ([2]; first compound 0.253 µM) | relative viability ([2]; first compound 0.8 µM) | relative viability ([2]; first compound 2.53 µM) | relative viability ([2]; first compound 8 µM) |
| --- | --- | --- | --- | --- | --- | --- | --- | --- | --- | --- | --- | --- | --- | --- | --- | --- | --- | --- |
| NCI-H2342 | 0.808 | 0.797 | 0.93 | 0.903 | 0.919 | 0.678 | 0.675 | 0.604 | 0.525 | 0.954 | 0.998 | 0.986 | 0.944 | 0.94 | – | – | – | – |
| SK-MES-1 | 0.556 | 0.536 | 0.625 | 0.776 | 0.782 | 0.859 | 0.79 | 0.912 | 0.783 | 1.03 | 1.02 | 1.01 | 0.965 | 0.953 | 0.995 | 1.04 | 1.03 | 0.929 |
| NCI-H1355 | 0.344 | 0.388 | 0.44 | 0.386 | 0.406 | 0.685 | 0.592 | 0.915 | 0.82 | 0.961 | 0.936 | 1.04 | 0.838 | 0.905 | – | – | 0.947 | 0.763 |
| HCC-366 | 0.36 | 0.358 | 0.322 | 0.311 | 0.374 | 0.484 | 0.469 | 0.508 | 0.482 | 1.02 | 1.01 | 1.03 | 0.979 | 1.01 | 0.445 | 0.387 | 0.423 | 0.364 |
| 201T | 0.673 | 0.743 | 0.732 | 0.745 | 0.781 | 0.481 | 0.523 | 0.553 | 0.503 | 1 | 1 | 1.02 | 1.06 | 1.01 | 0.542 | 0.627 | 0.53 | 0.529 |
| HCC-827 | 0.545 | 0.571 | 0.552 | 0.505 | 0.518 | 0.47 | 0.297 | 0.455 | 0.443 | 1.03 | 1.06 | 1.1 | 0.957 | 1.01 | 0.397 | 0.291 | 0.399 | 0.328 |
| PC-14 | 0.856 | 0.758 | 0.781 | 0.67 | 0.531 | 0.896 | 0.778 | 0.817 | 0.846 | 1.14 | 0.951 | 0.962 | 0.928 | 0.806 | 0.742 | 0.717 | 0.719 | 0.702 |
| NCI-H2228 | 0.666 | 0.57 | 0.466 | 0.534 | 0.421 | 0.904 | 0.921 | 0.979 | 0.834 | 1.22 | 1.1 | 0.881 | 0.837 | 0.686 | 0.63 | 0.592 | 0.756 | 0.526 |
| NCI-H727 | 0.398 | 0.37 | 0.413 | 0.412 | 0.376 | 0.817 | 0.728 | 0.981 | 0.785 | 0.914 | 0.899 | 0.696 | 0.819 | 0.95 | 0.479 | 0.36 | 0.368 | 0.262 |
| NCI-H1650 | 0.79 | 0.627 | 0.552 | 0.533 | 0.479 | – | 0.756 | 0.749 | 0.722 | 0.895 | 0.85 | 0.94 | 0.911 | 0.98 | – | 0.895 | 0.816 | 0.868 |
| A-427 | 0.789 | 0.748 | 0.818 | 0.719 | 0.701 | 0.904 | – | 0.956 | 0.789 | 1.04 | 0.955 | 0.992 | 0.941 | 0.908 | 0.86 | – | 0.771 | 0.631 |
| NCI-H650 | 1.04 | 1.03 | 0.852 | 0.924 | 0.836 | 0.927 | 0.72 | 0.865 | 0.71 | 1.07 | 0.988 | 0.731 | 0.787 | 0.789 | – | – | – | – |
| NCI-H1792 | 0.4 | 0.417 | 0.4 | 0.42 | 0.479 | 0.748 | 0.741 | 0.833 | 0.846 | 1.01 | 1.11 | 0.963 | 0.828 | 1.07 | 0.4 | 0.409 | 0.409 | 0.482 |
| NCI-H2009 | 0.248 | 0.325 | 0.321 | 0.293 | 0.276 | 0.613 | 0.552 | 0.61 | 0.539 | 1.16 | 0.94 | 0.988 | 0.926 | 0.866 | 0.667 | 0.671 | 0.614 | 0.54 |
| Calu-6 | – | – | – | – | – | 0.673 | 0.682 | 0.694 | 0.61 | 1.08 | 0.925 | 0.928 | 0.831 | 0.733 | 0.667 | 0.673 | 0.651 | 0.612 |
| NCI-H1975 | 0.35 | 0.401 | 0.453 | 0.359 | 0.344 | – | 0.676 | 0.918 | 0.849 | 0.973 | 1 | 0.884 | 0.788 | 0.733 | – | 0.82 | 0.838 | 0.882 |
